Results from ChEMBL document CHEMBL1150101, “Novel antiplatelet naphthalene from Rhamnus nakaharai” (J Nat Prod, 1995).

What was measured:
[1] = Antiplatelet activity against washed rabbit platelet assessed as PAF-induced platelet aggregation at 300 uM administered 3 mins before PAF challenge; type: functional, Oryctolagus cuniculus
[2] = Antiplatelet activity against human platelet assessed as epinephrine-induced platelet aggregation at 20 uM administered 3 mins before epinephrine challenge; type: functional
[3] = Antiplatelet activity against washed rabbit platelet assessed as arachidonic acid-induced platelet aggregation; type: functional, cell-based; conditions: Oryctolagus cuniculus
[4] = Antiplatelet activity against washed rabbit platelet assessed as collagen-induced platelet aggregation at 300 uM administered 3 mins before collagen challenge; type: functional, Oryctolagus cuniculus
[5] = Antiplatelet activity against washed rabbit platelet assessed as arachidonic acid-induced platelet aggregation at 300 uM administered 3 mins before arachidonic acid challenge; type: functional, Oryctolagus cuniculus
[6] = Antiplatelet activity against washed rabbit platelet assessed as thrombin-induced platelet aggregation at 300 uM administered 3 mins before thrombin challenge; type: functional, Oryctolagus cuniculus
[7] = Antiplatelet activity against human platelet assessed as epinephrine-induced platelet aggregation at 50 uM administered 3 mins before epinephrine challenge; type: functional
[8] = Antiplatelet activity against washed rabbit platelet assessed as collagen-induced platelet aggregation at 400 uM administered 3 mins before collagen challenge; type: functional, Oryctolagus cuniculus
[9] = Antiplatelet activity against human platelet assessed as epinephrine-induced platelet aggregation at 100 uM administered 3 mins before epinephrine challenge; type: functional
[10] = Antiplatelet activity against washed rabbit platelet assessed as PAF-induced platelet aggregation at 400 uM administered 3 mins before PAF challenge; type: functional, Oryctolagus cuniculus
[11] = Antiplatelet activity against washed rabbit platelet assessed as arachidonic acid-induced platelet aggregation at 400 uM administered 3 mins before arachidonic acid challenge; type: functional, Oryctolagus cuniculus
[12] = Antiplatelet activity against washed rabbit platelet assessed as thrombin-induced platelet aggregation at 400 uM administered 3 mins before thrombin challenge; type: functional, Oryctolagus cuniculus
[13] = Antiplatelet activity against washed rabbit platelet assessed as thrombin-induced platelet aggregation at 50 uM administered 3 mins before thrombin challenge; type: functional, Oryctolagus cuniculus
[14] = Antiplatelet activity against washed rabbit platelet assessed as arachidonic acid-induced platelet aggregation at 50 uM administered 3 mins before arachidonic acid challenge; type: functional, Oryctolagus cuniculus
[15] = Antiplatelet activity against washed rabbit platelet assessed as PAF-induced platelet aggregation at 50 uM administered 3 mins before PAF challenge; type: functional, Oryctolagus cuniculus
[16] = Antiplatelet activity against human platelet assessed as epinephrine-induced platelet aggregation administered 3 mins before epinephrine challenge; type: functional
[17] = Antiplatelet activity against washed rabbit platelet assessed as collagen-induced platelet aggregation at 50 uM administered 3 mins before collagen challenge; type: functional, Oryctolagus cuniculus

SMILES | Activity [1] | Activity [4] | Activity [5] | Activity [6] | further results
COc1cc(OC(C)=O)cc2cc(C)c(C(C)=O)c(OC(C)=O)c12 [ISOTORACHRYSONE PERACETATE] | 86.7% | 16.8% | 0% | 82.7% | Activity [2]: 83%; IC50 [3]: 5.1 µM; Activity [7]: 13%
COc1cc(O)c2c(O)c3c(cc2c1)COC3=O | 80% | 41.7% | 22.1% | 88.1% | –
COc1cc(O)cc2cc(C)c(C(C)=O)c(O)c12 [ISOTORACHRYSONE] | – | – | – | – | Activity [8]: 39.1%; Activity [9]: 20.2%; Activity [10]: 94.2%; Activity [11]: 0%; Activity [12]: 92.2%
COc1c(-c2ccc(OC(C)=O)c(OC(C)=O)c2)oc2cc(OC(C)=O)cc(OC(C)=O)c2c1=O | 0% | 0% | 0% | 64.9% | –
COc1c(-c2ccc(O)c(O)c2)oc2cc(O)cc(O)c2c1=O [3-O-METHYLQUERCETIN] | 50.1% | 5.4% | 0% | 81.2% | –
CC(=O)Oc1ccccc1C(=O)O [ASPIRIN] | – | – | – | – | Activity [13]: 91.9%; Activity [14]: 0%; Activity [15]: 90.5%; Activity [16]: 39.6%; Activity [17]: 85.4%
